Results from US20020137162A1, “Antisense oligonucleotide inhibition of specific histone deacetylase isoforms” (priority 2000, published 2002).
d = 2'-deoxy (DNA); m = 2'-O-methyl

Key:
[1] = system: human HDAC-4; test: Antisense ODN screen, HDAC-4 RNA, T24 cells; assay type: cell-based; conditions: 100 nM, 24 hours, Northern blot
Protocol: Seventeen phosphorothioate ODNs containing sequences complementary to the 5′ or 3′ UTR of the human HDAC-4 gene (GenBank Accession No. AB006626) were screened as above. […] HDAC-4 MM1 and MM2 oligonucleotides were created as controls; compared to the antisense oligonucleotides, they each contain a 6-base mismatch.
(§1) Briefly, human A549 and/or T24 human bladder carcinoma cells were seeded in 10 cm tissue culture dishes one day prior to oligonucleotide treatment. The cell lines were obtained from the American Type Culture Collection (ATCC) (Manassas, Va.) and were grown under the recommended culture conditions. Before the addition of the oligonucleotides, cells were washed with PBS (phosphate buffered saline). Next, lipofectin transfection reagent (GIBCO BRL Mississauga, Ontario, Calif.), at a concentration of 6.25 μg/ml, was added to serum free OPTIMEM medium (GIBCO BRL, Rockville, Md.), which was then added to the cells. The oligonucleotides to be screened were then added directly to the cells (i.e., one oligonucleotide per plate of cells). Mismatched oligonucleotides were used as controls. The same concentration of oligonucleotide (e.g., 50 nM) was used per plate of cells for each oligonucleotide tested.
(§2) Cells were harvested, and total RNAs were analyzed by Northern blot analysis. Briefly, total RNA was extracted using RNeasy miniprep columns (QIAGEN). […]

[2] = system: human HDAC-3; test: Antisense ODN screen, HDAC-3 RNA, T24 cells; assay type: cell-based; conditions: 100 nM, 24 hours, Northern blot
Protocol: Twenty-one phosphorothioate ODNs containing sequences complementary to the 5′ or 3′ UTR of the human HDAC-3 gene (GenBank Accession No. AF039703) were screened as above. […] HDAC-3 MM oligonucleotide was created as a control; compared to the antisense oligonucleotide, it contains a 6-base mismatch.
as §1, §2

[3] = system: HDAC-3 protein; test: Western blot of HDAC isotype protein expression in A549 cells, HDAC-3; assay type: cell-based, human; conditions: 50 nM, 48 hours
Protocol: (§3) OSDN treatment conditions were as previously described.
(§4) Cells were lysed in buffer containing 1% Triton X-100, 0.5% sodium deoxycholate, 5 mM EDTA, 25 mM Tris-HC1, pH 7.5, plus protease inhibitors. Total protein was quantified by the protein assay reagent from Bio-Rad (Hercules, Calif.). 100 ug of total protein was analyzed by SDS-PAGE. Next, total protein was transferred onto a PVDF membrane and probed with various HDAC-specific primary antibodies. Rabbit anti-HDAC-1 (H-51), anti-HDAC-2 (H-54) antibodies (Santa Cruz Biotechnologies, Santa Cruz, Calif.) were used at 1:500 dilution. Rabbit anti-HDAC-3 antibody (Sigma, St. Louis, Mo.) was used at a dilution of 1:1000. Anti-HDAC-4 antibody was prepared as previously described (Wang, S. H. et al., (1999) Mol. Cell. Biol. 19:7816-27), and was used at a dilution of 1:1000. Anti-HDAC-6 antibody was raised by immunizing rabbits with a GST fusion protein containing a fragment of HDAC-6 protein (amino acid #990 to #1216, GenBank Accession No. AAD29048). Rabbit antiserum was tested and found only to react specifically to the human HDAC-6 isoform. HDAC-6 antiserum was used at 1:500 dilution in Western blots to detect HDAC-6 in total cell lysates. Horse Radish Peroxidase conjugated secondary antibody was used at a dilution of 1:5000 to detect primary antibody binding. […]

[4] = system: A549; test: Cell growth inhibition, trypan blue cell count; assay type: cell-based, human; conditions: A549 cancer cells, 50 nM, 72 hours
Protocol: (§5) In order to determine the effect of HDAC OSDNs on cell growth and cell death through apoptosis, A549 or T24 cells, MDAmb231 cells, and HMEC cells (ATCC, Manassas, Va.) were treated with HDAC OSDNs as previously described.
(§6) Cells were harvested and cell numbers counted by trypan blue exclusion using a hemocytometer. Percentage of inhibition was calculated as (100—AS cell numbers/control cell numbers) %.

[5] = system: HMEC; test: Cell growth inhibition, trypan blue cell count; assay type: cell-based, human; conditions: HMEC normal cells, 50 nM, 72 hours
Protocol: as §5, §6

[6] = system: MDAmb231; test: Cell growth inhibition, trypan blue cell count; assay type: cell-based, human; conditions: MDAmb231 cancer cells, 50 nM, 72 hours
Protocol: as §5, §6

[7] = system: T24; test: Cell growth inhibition, trypan blue cell count; assay type: cell-based, human; conditions: T24 cancer cells, 50 nM, 72 hours
Protocol: as §5, §6

[8] = system: A549; test: Apoptosis, Cell Death Detection ELISA; assay type: cell-based, human; conditions: fold over non-specific background, TSA at 100 ng/ml
Protocol: as §5
(§7) For the apoptosis study, cells were analyzed using the Cell Death Detection ELISA ^PLUSkit (Roche Diagnostic GmBH, Mannheim, Germany) according to the manufacturer's directions. Typically, 10,000 cells were plated in 96-well tissue culture dishes for 2 hours before harvest and lysis. Each sample was analyzed in duplicate. ELISA reading was done using a MR700 plate reader (DYNEX Technology, Ashford, Middlesex, England) at 410 nm. The reference was set at 490 nm.

[9] = system: HMEC; test: Apoptosis, Cell Death Detection ELISA; assay type: cell-based, human; conditions: fold over non-specific background, TSA at 100 ng/ml
Protocol: as §5, §7

[10] = system: MDAmb231; test: Apoptosis, Cell Death Detection ELISA; assay type: cell-based, human; conditions: fold over non-specific background, TSA at 100 ng/ml
Protocol: as §5, §7

[11] = system: T24; test: Apoptosis, Cell Death Detection ELISA; assay type: cell-based, human; conditions: fold over non-specific background, TSA at 100 ng/ml
Protocol: as §5, §7

[12] = system: human cancer cells; test: Cell growth and apoptosis, summary for cancer cells; assay type: cell-based
Protocol: as §5, §7, §6

[13] = system: human HDAC-1; test: Antisense ODN screen, HDAC-1 RNA expression by Northern blot in T24 cells; assay type: cell-based; conditions: 100 nM, 24 hours
Protocol: as §1
Cells were harvested, and total RNAs were analyzed by Northern blot analysis. Briefly, total RNA was extracted using RNeasy miniprep columns (QIAGEN). Ten to twenty gg of total RNA was run on a formaldehyde-containing 1% agarose gel with 0.5 M sodium phosphate (pH 7.0) as the buffer system. RNAs were then transferred to nitrocellulose membranes and hybridized with the indicated radiolabeled DNA probes. Autoradiography was performed using conventional procedures.

[14] = system: cyclin B1; test: Western blot of cyclin B1 in A549 cells; assay type: cell-based, human; conditions: 48 hours
Protocol: (§8) Human cancer A549 cells were treated with AS1, AS2 or MM oligo directed human HDAC1 for 48 hours. Total cell lysates were harvested and analyzed by Western blot using antibodies against human HDAC1, cyclin Bl, cyclin A and actin (all from Santa Cruz Biotechnology, Inc., Santa Cruz, Calif.).

[15] = system: cyclin A; test: Western blot of cyclin A in A549 cells; assay type: cell-based, human; conditions: 48 hours
Protocol: as §8

[16] = system: human HDAC-5; test: Antisense ODN screen, HDAC-5 RNA, T24 cells; assay type: cell-based; conditions: 100 nM, 24 hours, Northern blot
Protocol: Thirteen phosphorothioate ODNs containing sequences complementary to the 5′ or 3′ untranslated regions of the human HDAC-5 gene (GenBank Accession No. AF039691) were screened as above.
as §1
(§9) Cells were harvested, and total RNAs were analyzed by Northern blot analysis. Briefly, total RNA was extracted using RNeasy miniprep columns (QIAGEN). Ten to twenty gg of total RNA was run on a formaldehyde-containing 1% agarose gel with 0.5 M sodium phosphate (pH 7.0) as the buffer system. […]

[17] = system: mammalian HDAC; conditions: Yoshida et al., J. Biol. Chem 265: 17174-17179 (1990); cited from earlier work
[18] = system: murine erythroleukemia cells; conditions: Yoshida et al, Cancer Research 47: 3688-3691 (1987); cited from earlier work
[19] = system: human HDAC-7; test: Antisense ODN screen, HDAC-7 RNA, T24 cells; assay type: cell-based; conditions: 100 nM, 24 hours, Northern blot
Protocol: Eighteen phosphorothioate ODNs containing sequences complementary to the 5′ or 3′ untranslated regions of the human HDAC-7 gene (GenBank Accession No. AF239243) were screened as above.
as §1, §9

[20] = system: human HDAC-2; test: Antisense ODN screen, HDAC-2 RNA, T24 cells; assay type: cell-based; conditions: 100 nM, 24 hours, Northern blot
Protocol: Twenty-four phosphorothioate ODNs containing sequences complementary to the 5′ or 3′ UTR of the human HDAC-2 gene (GenBank Accession No. U31814) were screened as above. […] HDAC-2 MM was created as a control; compared to the antisense oligo, it contains a 7-base mismatch.
as §1, §2

[21] = system: HDAC-2 protein; test: Western blot of HDAC isotype protein expression in A549 cells, HDAC-2; assay type: cell-based, human; conditions: 50 nM, 48 hours
Protocol: as §3, §4

[22] = system: A549 cells; test: Growth in soft agar, colony count; assay type: cell-based, human; conditions: colonies counted after three weeks
Protocol: 1.3 g granulated agar (DIDFCO) was added to 100 ml deionized water and boiled in a microwave to sterilize. The boiled agar was held at 55 C until further use. Iscove's Modified Dulbecco×s Medium (GIBCO/BRL), 100× Penicillin-Streptomycin-Glutamine (GIBCO/BRL) and fetal bovine serum (medicorp) were pre-warmed at 37 C. To 50 ml sterile tubes was added 9 ml Isove's medium, 2 ml fetal bovine serum and 0.2 ml 100× Pen-Strep-Gln. Then 9 ml 55 C 1.3% agar was added to each tube. The tube contents were mixed immediately, avoiding air bubbles, and 2.5 ml of the mixture was poured into each sterile 6 cm petri dish to form a polymerized bottom layer. Dishes with polymerized bottom layers were then put in a CO2 incubator at 37 C until further use. In 50 ml sterile tubes were prewarmed at 37 C for each 4 cell lines/samples, 20 ml Iscove's medium, 0.4 ml 100× Pen-Strep-Gln and 8 ml fetal bovine serum. Cells were trypsinized and counted by trypan blue staining and 20,000 cells were aliquotted into a sterile 15 ml tube. To the tube was then added DMEM with low glucose (GIBCO/BRL)+10% fetal bovine serum+Pen-Strep-Gln to a final volume of 1 ml. To the prewarmed 37 C mix in the 50 ml tube was quickly added 8 ml 55 C 1.3% agar, which was then mixed well. […] Plates were wrapped up in foil paper and incubated in a CO2 incubator at 37° C. for three weeks, at which time colonies in agar are counted.

5′-TACAGTCCATGCAACCTCCA-3′ [HDAC-4 AS2]
antisense activity to human HDAC-4 [1]: antisense activity

5′-CGCTTTCCTTGTCATTGACA-3′ (chemistry not given here) [HDAC-3 AS]
antisense activity to human HDAC-3 [2]: antisense activity | HDAC-3 protein expression [3]: specifically inhibits | Growth Inhibition (AS vs. MM) [4]: − (“−”: no inhibition) | Growth Inhibition (AS vs. MM) [5]: − (“−”: no inhibition) | Growth Inhibition (AS vs. MM) [6]: − (“−”: no inhibition) | Growth Inhibition (AS vs. MM) [7]: − (“−”: no inhibition) | Apoptosis After 48 Hour Treatment [8]: − (“−”: <= 2x fold over non-specific background) | Apoptosis After 48 Hour Treatment [9]: − (“−”: <= 2x fold over non-specific background) | Apoptosis After 48 Hour Treatment [10]: − (“−”: <= 2x fold over non-specific background) | Apoptosis After 48 Hour Treatment [11]: − (“−”: <= 2x fold over non-specific background) | growth arrest and apoptosis of human cancer cells ([12]; Tables 3 and 4): no effect

5′-GAAACGTGAGGGACTCAGCA-3′ (chemistry not given here) [HDAC-1 AS1]
antisense activity to human HDAC-1 (HDAC-1 RNA expression) [13]: antisense activity | Apoptosis After 48 Hour Treatment [8]: + (“+”: 2-3X fold) | Apoptosis After 48 Hour Treatment [9]: − (“−”: <= 2x fold over non-specific background) | Apoptosis After 48 Hour Treatment [11]: − (“−”: <= 2x fold over non-specific background) | expression of cyclin B1 [14]: repress expression | expression of cyclin A [15]: repress expression

5′-CTTCGGTCTCACCTGCTTGG-3′ (sugars from the 5' end m4 d12 m4, all phosphorothioate, methylation of C and T or U not given here) [HDAC-5 AS]
antisense activity to human HDAC-5 [16]: antisense activity

CC(/C=C/C(=O)NO)=C\[C@@H](C)C(=O)c1ccc(N(C)C)cc1 [TSA, (R)-Trichostatin A, reference compound]
Apoptosis After 48 Hour Treatment [8]: ++ (“++”: 3-5X fold) | Apoptosis After 48 Hour Treatment [9]: + (“+”: 2-3X fold) | Apoptosis After 48 Hour Treatment [10]: ++ (“++”: 3-5X fold) | Apoptosis After 48 Hour Treatment [11]: ++ (“++”: 3-5X fold) | inhibition of mammalian HDAC [17]: potent inhibitor | induction of differentiation in murine erythroleukemia cells [18]: potent inducer of differentiation

5′-CTTCAGCCAGGATGCCCACA-3′ (sugars from the 5' end m4 d12 m4, all phosphorothioate, methylation of C and T or U not given here) [HDAC-7 AS]
antisense activity to human HDAC-7 [19]: antisense activity

5′-GGAAGCCAGAGCTGGAGAGG-3′ (chemistry not given here) [HDAC-1 AS2]
antisense activity to human HDAC-1 (HDAC-1 RNA expression) [13]: antisense activity | expression of cyclin B1 [14]: repress expression | expression of cyclin A [15]: repress expression

5′-GCTGAGCTGTTCTGATTTGG-3′ (chemistry not given here) [HDAC-2 AS]
antisense activity to human HDAC-2 [20]: antisense activity | HDAC-2 protein expression [21]: specifically inhibits | Growth Inhibition (AS vs. MM) [6]: − (“−”: no inhibition) | Apoptosis After 48 Hour Treatment [8]: − (“−”: <= 2x fold over non-specific background) | Apoptosis After 48 Hour Treatment [9]: − (“−”: <= 2x fold over non-specific background) | Apoptosis After 48 Hour Treatment [10]: − (“−”: <= 2x fold over non-specific background) | Apoptosis After 48 Hour Treatment [11]: − (“−”: <= 2x fold over non-specific background) | growth of A549 cells in soft agar [22]: do not | cancer cell growth inhibition ([12]; summary of Table 3): minimal effect
